Assay results from patent US11590092B2, “Skin probiotic” (The Regents of the University of California, priority 2014, dated 2023).
≈ marks a conversion by molar mass, not a printed value. Entries after “also recorded” stand apart in the source; their conditions may differ.

Tests used:
[1] = test system: USA300; assay: MBC assay against USA300; format: cell-based, Staphylococcus aureus
Procedure: To determine the MBC of propionic acid, USA300 (10^6 CFU/ml) were incubated with propionic acid at various concentrations (1.25-100 mM in PBS) as indicated in each individual experiment in media on a 96-well microplate (100 μl per well) overnight. The control received only PBS. After incubation, the bacteria were diluted 1:10-1:10^6 with PBS. […] To determine the pH effect on the bacterial growth, USA300 in TSB was incubated with 2.5 mM propionic acid on a 96-well microplate (100 μl per well) overnight before spotting on an agar plate.
To determine the minimal bactericidal concentration (MBC) and minimal fungicidal concentration (MFC) of propionic acid, microorganisms (10^6 colony forming units (cfu)/ml) were incubated overnight in media with propionic acid (1.25-2,000 mM) in a 96-well microplate (100 μl per well). The control only received PBS. After incubation, the microorganisms were diluted 1:10-1:10^6 into PBS. […]

[2] = test system: P. acnes; assay: MBC assays of SCFAs against P. acnes; format: cell-based, Propionibacterium acnes; conditions: for MBC: Cutibacterium acnes, P. acnes 10^8 CFU/ml, overnight, 99.9% killing level
Procedure: To determine the MBC values of SCFAs, P. acnes (10^8 CFU/ml) was incubated with SCFAs at various concentrations (2.5-100 mM in PBS) as indicated in each individual experiment in media on a 96-well microplate (100 μl per well) overnight. The control received only PBS. After incubation, the bacteria were diluted 1:10-1:10^6 with PBS. MBC was defined as a 99.9% killing level and determined by spotting the dilution (5 μl) on an agar plate supplemented with media for CFU counting. To determine the effect of pH on its growth, P. acnes in PBS was incubated with 5 mM succinic acid on a 96-well microplate (100 μl per well) overnight before spotting on an agar plate. As controls, P. acnes was incubated with PBS (pH 7.4) alone, PBS (pH 5.5; a pH value corresponding to the MBC of succinic acid in PBS), or buffered succinic acid (5 mM succinic acid, pH 7.4 buffered with ammonium hydroxide).
The minimal bactericidal concentration (MBC) assays were performed to determine if SCFAs exert the antimicrobial activities against P. acnes. Bacteria were incubated with acetic acid, butyric acid, lactic acid, and succinic acid various concentrations in media for 24 h. After incubation, the bacteria were diluted with PBS and spotted on an agar plate to count CFUs. […] To assess the acidity (pH 5.5) of 5 mM succinic acid in affecting growth of P. acnes, bacteria were incubated with PBS (pH 5.5) or ammonium hydroxide-buffered succinic acid (pH 7.4).

[3] = test system: P. acnes; assay: Growth curve of P. acnes in absence or presence of glycerol (OD600); format: cell-based, Propionibacterium acnes; conditions: rich medium with glycerol vs without, anaerobic, 30° C.
Procedure: P. acnes was incubated in rich medium in the absence (□) and presence (▪) of glycerol on a 96-well microplate under anaerobic conditions at 30° C. The OD600 was read at the indicated time points. Data are the mean±SD of three separate experiments.

[4] = test system: USA300; assay: Growth of USA300 with glycerol; format: cell-based, Staphylococcus aureus; conditions: glycerol itself
[5] = test system: USA300; assay: Interference of P. acnes fermentation with the colonization of USA300 in skin wounds in vivo; design: species or system ICR mice; conditions: glycerol 0.2 mg alone, compared to PBS
Procedure: A 5 mm wound made on the dorsal skin of ICR mice were described above. P. acnes bacteria (10^7 CFU in 5 μl PBS), P. acnes bacteria and glycerol (0.2 mg), PBS (5 μl) alone or glycerol alone were applied onto the skin wounds for 3 days. USA300 (10^7 CFU in 5 μl PBS) was administered onto the same wounds. The wounds were excised, weighted and homogenized 3 days after USA300 administration. Bacterial CFUs in the wounds were enumerated by plating serial dilutions (1:10^1-1:10^6) of the homogenate on a TSB agar plate. The plate was incubated for 24 h at 37° C. to count colonies of USA300.

[6] = test system: P. acnes
[7] = test system: P. acnes; conditions: 5 mM, 5 min after treatment, vs PBS
Procedure: To eliminate unbound probe, bacteria were incubated with glucose (10 mM) for an additional 30 min, washed twice in 50 mM PBS with 10 mM MgCl2, pH 7.0, and then re-suspended in 1 mM PBS. […] Fluorescence intensities were measured immediately and every min for 5 min using an excitation wavelength of 490 nm and emission wavelength of 520 nm. A drop in relative fluorescence indicates the decrease in intracellular pH. Fluorescence of the bacteria-free filtrate (background fluorescence) was measured after the 5-min assay. The treated suspensions were centrifuged at 5,000 g for 5 min, the fluorescence of the bacteria-free supernatant was measured. Calibration curves were obtained by incubation of un-treated, cFSE-loaded bacteria in buffers of various pHs. The buffer containing glycine (50 mM), citric acid (50 mM), Na2HPO4.2H2O (50 mM), and KCl (50 mM) was adjusted to various pH values ranging from 4 to 10. Equilibration of the intracellular and extracellular pH was conducted by addition of 1 μM valinomycin and nigericin (Sigma, St. Louis, Mo.).
P. acnes was loaded with an internally conjugated fluorescent pH probe, carboxyfluorescein succinimidyl ester (cFSE).

[8] = topical application, 100 mM once per day, vs PBS

## CCC(=O)OCCOCCOC(=O)CC [PA-DEG-PA, propionic acid 2-(2-propionyloxyethoxy)ethyl ester]
[1]; 4% dimethyl sufoxide
  efficacy to suppress the growth of USA300 in vitro compared with propionic acid: equivalent in efficacy
[1]; dissolved in 4% dimethyl sufoxide, overnight
  concentration for complete growth inhibition of USA300: 100 mM
[1]; dissolved in 4% dimethyl sufoxide, overnight, 0-100 mM
  MBC (>1 log10 inhibition) against USA300: ≥ 25 mM

## CC(=O)O [acetic acid]
[2]
  MBC: 7.5 mM (≈ 450 µg/mL)

## CCCC(=O)O [butyric acid]
[2]
  MBC: 10 mM (≈ 881 µg/mL)

## OCC(O)CO [glycerol]
[3]
  growth of P. acnes: did not influence; also recorded: did not change significantly
[4]
  growth of USA300: did not influence
[5]
  USA300 colonization: did not significantly alter
  size of USA300-infected lesions: did not significantly alter

## CC(O)C(=O)O (stereo not drawn) [lactic acid]
[2]
  MBC: 10 mM (≈ 901 µg/mL)

## O=C(O)CCC(=O)O [succinic acid]
[6]; application of succinic acid (FIG. 5)
  P. acnes-induced inflammation: significantly neutralizes
[6]; intralesional injection, 5 mM
  P. acnes numbers in ears: 2.9×10^4±1.3×10^4 CFU
[6]; intralesional injection, 5 mM, two days after injection, ELISA
  MIP-2 production less than in PBS-injected ear: approximately 50%
[6]; intralesional injection, 5 mM, vs PBS
  P. acnes-induced redness: reduced
[6]; [8]
  MIP-2 production: considerably lowered
  P. acnes colonization: considerably lowered
[7]
  intracellular pH of P. acnes: significantly lowered
[2]; 5 mM succinic acid buffered with ammonium hydroxide, pH 7.4
  antimicrobial activity against P. acnes after buffering: persisted
[2]
  MBC: 5 mM (≈ 590 µg/mL)
[2]; MBC assay
  concentration that completely killed P. acnes: ≥ 210 mM
  concentration that effectively suppressed the growth of P. acnes: ≥ 25 mM
